# Measurements: US8865935B2, “Purification methods for betulonic acid and Boc-lysinated betulonic acid, and organic synthesis of betulonic acid amides with piperazine derivatives” (priority 2011, dated 2014)
# Assays:
# [1] = test system: Stenotrophomonas nitritireducens KACC 10891T; test: antibacterial test, paper disc diffusion method; format: cell-based; settings: paper disc (diameter 8 mm) wetted with 60 μL of 1 mg/mL sample in DMSO on agar plate; test repeated three times
# Method: (§1) An antibacterial test was carried out using the above-mentioned paper disc diffusion method. Betulonic acid amide was dissolved in DMSO to make a sample having a concentration of 1 mg/mL. A filter paper (diameter: 8 mm, manufactured by Advantec, Toyo Roshi Kaisha, Japan) wetted with 60 μL of the sample was attached to an agar plate, and then a circumference, around which bacteria were not cultivated, was measured. DMSO was used as a negative control, and gentamicin was used as a positive control. The antibacterial test was repeatedly carried out three times.
# four kinds of bacteria = test: antibacterial test, paper disc diffusion method, all strains; format: cell-based; settings: from Table 3, 1 mg/mL sample
# Method: An antibacterial test was carried out using the above-mentioned paper disc diffusion method. Betulonic acid amide was dissolved in DMSO to make a sample having a concentration of 1 mg/mL. A filter paper (diameter: 8 mm, manufactured by Advantec, Toyo Roshi Kaisha, Japan) wetted with 60 μL of the sample was attached to an agar plate, and then a circumference, around which bacteria were not cultivated, was measured. DMSO was used as a negative control, and gentamicin was used as a positive control. The antibacterial test was repeatedly carried out three times. Ochrobactrum anthropi KCTC 22833T and Stenotrophomonas maltophilia KCTC 1773T used in the antibacterial test were purchased from Korean Collection for Type Culture (KCTC), and Ochrobactrum intermedium KACC 11952T and Stenotrophomonas nitritireducens KACC 10891T used in the antibacterial test were purchased from Korean Agricultural Culture Collection (KACC). The diameters of clear circular zones of samples 2 to 7 of FIG. 1 were measured by a paper disc diffusion method, and compared to that of gentamicin. […] Particularly, it can be ascertained that the activity of sample 2 (4-(3′,4′-dichlorophenylpiperazin-1-yl) amide betulonic acid) and the activity of sample 7 (4-(4′-trifluoromethylphenylpiperazin-1-yl) amide betulonic acid) are highest.
# [2] = test system: Ochrobactrum anthropi KCTC 22833T; test: antibacterial test, paper disc diffusion method; format: cell-based; settings: paper disc (diameter 8 mm) wetted with 60 μL of 1 mg/mL sample in DMSO on agar plate, test repeated three times
# Method: as §1
# [3] = test system: Ochrobactrum intermedium KACC 11952T; test: antibacterial test, paper disc diffusion method; format: cell-based; settings: paper disc (diameter 8 mm) wetted with 60 μL of 1 mg/mL sample in DMSO on agar plate, test repeated three times
# Method: as §1
# [4] = test system: Stenotrophomonas maltophilia KCTC 1773T; test: antibacterial test, paper disc diffusion method; format: cell-based; settings: for Antibacterial zone of inhibition (mm) S. maltophila: paper disc (diameter 8 mm) wetted with 60 μL of 1 mg/mL sample in DMSO on agar plate, test repeated three times
# Method: as §1
Compound,Antibacterial zone of inhibition (mm) S. nitritireducens [1],Antibacterial zone of inhibition (mm) O. anthropi [2],Antibacterial zone of inhibition (mm) O. intermedium [3],Antibacterial zone of inhibition (mm) S. maltophila [4],other results
"C=C(C)[C@@H]1CC[C@]2(C(=O)N3CCN(c4ccc(F)cc4)CC3)CC[C@]3(C)C(CC[C@@H]4[C@@]5(C)CCC(=O)C(C)(C)C5CC[C@]43C)[C@@H]12 (stereo partly drawn) [Compound 1 of FIG. 1, 4-(4′-fluorophenylpiperazine-1-yl) amide betulonic acid]",11 mm,–,–,–,growth inhibition effect (four kinds of bacteria): growth inhibition effect only to Stenotrophomonas nitritireducens; melting point: 151 to 152 °C
4-(4′-trifluoromethylphenylpiperazine-1-yl) amide betulonic acid [Compound 6 of FIG. 1],16 mm,15 mm,14 mm,14 mm,–
"C=C(C)[C@@H]1CC[C@]2(C(=O)N3CCN(c4ccc(Cl)c(Cl)c4)CC3)CC[C@]3(C)C(CC[C@@H]4[C@@]5(C)CCC(=O)C(C)(C)C5CC[C@]43C)[C@@H]12 (stereo partly drawn) [Compound 2 of FIG. 1, 4-(3′,4′-dichlorophenylpiperazine-1-yl) amide betulonic acid]",15 mm,–,–,–,"zone of inhibition at 1000 µg/mL ([2]; Brucella anthropi, KCTC22833T, read-out: Antibacterial zone of inhibition (mm) O. anthropi): 15 mm; zone of inhibition at 1000 µg/mL ([3]; Brucella intermedia, KACC11952T, read-out: Antibacterial zone of inhibition (mm) O. intermedium): 14 mm; zone of inhibition at 1000 µg/mL ([4]; Stenotrophomonas maltophilia, KCTC1773T, read-out: Antibacterial zone of inhibition (mm) S. maltophila): 13 mm; activity (ranking among the samples) (four kinds of bacteria): highest; melting point: 182 to 183 °C"
"C=C(C)[C@@H]1CC[C@]2(C(=O)N3CCN(c4ccc(C(F)(F)F)cc4)CC3)CC[C@]3(C)C(CC[C@@H]4[C@@]5(C)CCC(=O)C(C)(C)C5CC[C@]43C)[C@@H]12 (stereo partly drawn) [Compound 6 of FIG. 1, 4-(4′-trifluoromethylphenylpiperazine-1-yl) amide betulonic acid]",–,–,–,–,activity (ranking among the samples) (four kinds of bacteria): highest
"C=C(C)[C@@H]1CC[C@]2(C(=O)N3CCN(c4ccccn4)CC3)CC[C@]3(C)[C@H](CC[C@@H]4[C@@]5(C)CCC(=O)C(C)(C)[C@@H]5CC[C@]43C)[C@@H]12 [Compound 4 of FIG. 1, 4-(2-pyridylpiperazine-1-yl) amide betulonic acid]",–,–,10 mm,10 mm,–
"C=C(C)C1CCC2(C(=O)N3CCN(c4ncccn4)CC3)CCC3(C)C(CCC4C5(C)CCC(=O)C(C)(C)C5CCC43C)C12 (stereo not drawn) [Compound 5 of FIG. 1, 4-(2-pyrimidylpiperazine-1-yl) amide betulonic acid]",11 mm,13 mm,10 mm,10 mm,–
gentamicin [reference compound],21 mm,19 mm,17 mm,16 mm,–
